Results on 32 molecules are retold here after patent US7858621B2 (Amorepacific Corporation, priority 2006, dated 2010).

By IC50 is commonly meant the point on the concentration scale where inhibition reaches its midpoint.

Some results are limits rather than exact numbers.

The target of this assay is T1, vanilloid receptor (Rattus norvegicus, UniProt O35433).
T1 construct: DRG nerve cells from the primary culture of 2 days were equilibrated; endogenous in cells; host or cells: primary culture of dorsal root ganglion neurons from neonatal SD rats
T1 sequence (O35433 whole entry): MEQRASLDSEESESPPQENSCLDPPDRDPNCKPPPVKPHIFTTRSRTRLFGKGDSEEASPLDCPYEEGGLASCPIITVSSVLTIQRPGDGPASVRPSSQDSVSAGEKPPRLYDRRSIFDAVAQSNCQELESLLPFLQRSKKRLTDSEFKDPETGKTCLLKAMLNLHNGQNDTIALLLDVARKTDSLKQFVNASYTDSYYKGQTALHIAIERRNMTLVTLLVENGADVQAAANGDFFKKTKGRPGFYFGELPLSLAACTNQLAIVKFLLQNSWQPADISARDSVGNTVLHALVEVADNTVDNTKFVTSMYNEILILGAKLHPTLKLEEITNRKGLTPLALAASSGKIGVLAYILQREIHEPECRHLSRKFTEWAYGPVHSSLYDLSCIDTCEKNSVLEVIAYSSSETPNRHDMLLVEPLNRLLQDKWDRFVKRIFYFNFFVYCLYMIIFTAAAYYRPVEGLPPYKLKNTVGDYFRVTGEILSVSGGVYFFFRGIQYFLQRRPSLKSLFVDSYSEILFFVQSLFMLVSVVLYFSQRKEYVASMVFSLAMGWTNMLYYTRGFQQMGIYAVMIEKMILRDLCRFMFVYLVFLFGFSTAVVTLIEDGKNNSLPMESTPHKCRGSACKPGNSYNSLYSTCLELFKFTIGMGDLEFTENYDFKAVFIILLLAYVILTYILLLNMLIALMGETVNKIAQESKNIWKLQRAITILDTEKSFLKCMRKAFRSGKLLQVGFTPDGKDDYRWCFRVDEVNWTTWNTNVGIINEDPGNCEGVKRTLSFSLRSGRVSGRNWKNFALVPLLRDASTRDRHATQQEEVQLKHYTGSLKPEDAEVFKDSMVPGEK
Kind of assay: 45Ca influx test in cultured neonatal rat DRG neurons, inhibition of capsaicin response. To be noted: neonatal rat DRG neurons, capsaicin 0.5 μM, 45Ca influx; read-out: Antagonist Calcium Uptake Test (IC50). It is filed as cell-based. The procedure, abridged:
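Neonatal SD rat DRG neurons, cultured 2 days with NGF (200 ng/ml) and Ara-C, were washed in HEPES (10 mM, pH 7.4)-buffered Ca/Mg-free HBSS. Test compound was added with capsaicin (final 0.5 μM) and 45Ca (10 μCi/ml) for 10 min at room temperature; 45Ca uptake counted by scintillation after SDS elution.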
As for `CS(=O)(=O)Nc1c(F)cc(CNC(=O)/C=C/c2ccc(C(F)(F)F)nc2Nc2ccccc2)cc1C#N` [Example 128, N-(3-Cyano-5-fluoro-4-methanesulfonylamino-benzyl)-3-(2-phenylamino-6-trifluoromethyl-pyridin-3-yl)-acrylamide], the IC50 was 0.6 µM.

In the case of `C[C@@H](NC(=O)/C=C/c1ccc(C(F)(F)F)nc1N1CCCCC1)c1cc(F)c(NS(C)(=O)=O)c(F)c1` [Example 239, (R)—N-[1-(3,5-Difluoro-4-methanesulfonylamino-phenyl)-ethyl]-3-(2-piperid-1-yl-6-trifluoromethyl-pyridin-3-yl)-acrylamide], the IC50 came out at 0.12 µM.

Regarding `Cc1cc(CNC(=O)/C=C/c2ccc(C(F)(F)F)nc2NC(C)C)ccc1NS(C)(=O)=O` [Example 219, 3-(2-Isopropylamino-6-trifluoromethyl-pyridin-3-yl)-N-(4-methanesulfonylamino-3-methyl-benzyl)-acrylamide], the 50% inhibitory concentration (IC50) came out at 0.073 µM.

Consider `CS(=O)(=O)Nc1ccc(CNC(=O)/C=C/c2ccc(N3CCCC3)nc2)cc1F` [Example 25, N-(3-Fluoro-4-methanesulfonylamino-benzyl)-3-(6-pyrrolidin-1-yl-pyridin-3-yl)-acrylamide], for which the 50% inhibitory concentration (IC50) was over 10 µM.

Turning to `C#Cc1cc(CNC(=O)/C=C/c2ccc(C(F)(F)F)nc2CCCC)cc(F)c1NS(C)(=O)=O` [Example 144, 3-(2-Butyl-6-trifluoromethyl-pyridin-3-yl)-N-(3-ethynyl-5-fluoro-4-methanesulfonylamino-benzyl)-acrylamide], the IC50 came to 0.033 µM.

`CC(C)(C)c1ccc(/C=C/C(=O)NCc2ccc(NS(C)(=O)=O)c(F)c2)cn1` [Examples 1]: the half-maximal inhibitory concentration (IC50) came to 1.3 µM.

Turning to `C#Cc1cc(CNC(=O)/C=C/c2ccc(C(F)(F)F)nc2Oc2ccccc2)cc(F)c1NS(C)(=O)=O` [Example 78, N-(3-Ethynyl-5-fluoro-4-methanesulfonylamino-benzyl)-3-(2-phenoxy-6-trifluoromethyl-pyridin-3-yl)-acrylamide], the concentration for half-maximal inhibition (IC50) is 0.12 µM.

Take `CC(C)Nc1nc(C(F)(F)F)ccc1/C=C/C(=O)NCc1cc(F)c(NS(C)(=O)=O)c(F)c1` [Example 217, N-(3,5-Difluoro-4-methanesulfonylamino-benzyl)-3-(2-isopropylamino-6-trifluoromethyl-pyridin-3-yl)-acrylamide]: the 50% inhibitory concentration (IC50) turned out to be 0.13 µM.

In the case of `C#Cc1cc(CNC(=O)/C=C/c2ccc(C(F)(F)F)nc2OCc2ccccc2)cc(F)c1NS(C)(=O)=O` [Example 96, N-(3-Ethynyl-5-fluoro-4-methanesulfonylamino-benzyl)-3-(2-benzyloxy 6-trifluoromethyl-pyridin-3-yl)-acrylamide], the 50% inhibitory concentration (IC50) came to 1.7 µM.

Take `CCCCc1nc(C(F)(F)F)ccc1C#CC(=O)NCc1cc(C)c(NS(C)(=O)=O)c(F)c1` [Example 273, 3-(2-Butyl-6-trifluoromethyl-pyridin-3-yl)-propynoic acid 3-fluoro-4-methanesulfonylamino-5-methyl-benzylamide]: the IC50 stood at 0.84 µM.

On to `CS(=O)(=O)Nc1ccc(CNC(=O)/C=C/c2ccc(C(F)(F)F)nc2NC2CCCC2)cc1F` [Example 89, 3-(2-Cyclopentylamino-6-trifluoromethyl-pyridin-3-yl)-N-(3-fluoro-4-methanesulfonylamino-benzyl)-acrylamide], for which the 50% inhibitory concentration (IC50) is 0.28 µM.

`CC[C@@H](C)c1nc(C(F)(F)F)ccc1/C=C/C(=O)NCc1ccc(NS(C)(=O)=O)c(C)c1` [Example 241, (R)-3-(2-sec-Butyl-6-trifluoromethyl-pyridin-3-yl)-N-1-(4-methanesulfonylamino-3-methyl-benzyl)-acrylamide]: the half-inhibitory concentration (IC50) came out at 0.034 µM.

With `Cc1cc(CNC(=O)/C=C/c2ccc(C(F)(F)F)nc2C(C)C)ccc1NS(C)(=O)=O` [Example 233, N-(4-methanesulfonylamino-3-methyl-benzyl)-3-(2-isopropyl-6-trifluoromethyl-pyridin-3-yl)-acrylamide], the IC50 was found to be 0.08 µM.

In the case of `C#Cc1cc(CNC(=O)/C=C/c2ccc(C(F)(F)F)nc2OCCCC)cc(F)c1NS(C)(=O)=O` [Example 66, 3-(2-Butoxy-6-trifluoromethyl-pyridin-3-yl)-N-(3-ethynyl-5-fluoro-4-methanesulfonylamino-benzyl)-acrylamide], the IC50 came to 0.25 µM.

`C#Cc1cc(CNC(=O)/C=C/c2ccc(C(F)(F)F)nc2N2CCCCC2)cc(F)c1NS(C)(=O)=O` [Example 24, N-(3-Ethynyl-5-fluoro-4-methanesulfonylamino-benzyl)-3-(2-piperid-1-yl-6-trifluoromethyl-pyridinyl-3-yl)-acrylamide]: the IC50 is 0.34 µM.

As for `C#Cc1cc(CNC(=O)/C=C/c2ccc(C(F)(F)F)nc2-n2cccn2)cc(F)c1NS(C)(=O)=O` [Example 80, N-(3-Ethynyl-5-fluoro-4-methanesulfonylamino-benzyl)-3-[2-pyrazol-1-yl-6-trifluoromethyl-pyridin-3-yl]-acrylamide], the IC50 amounted to 3.1 µM.

Take `C#Cc1cc(CNC(=O)/C=C/c2ccc(C(F)(F)F)nc2CC)cc(F)c1NS(C)(=O)=O` [Example 150, 3-(2-Ethyl-6-trifluoromethyl-pyridin-3-yl)-N-(3-ethynyl-5-fluoro-4-methanesulfonylamino-benzyl)-acrylamide]: the IC50 is 0.21 µM.

For `CCNc1nc(C(F)(F)F)ccc1/C=C/C(=O)NCc1ccc(NS(C)(=O)=O)c(C)c1` [Example 247, N-(4-methanesulfonylamino-3-methyl-benzyl)-3-(2-ethylamino-6-trifluoromethyl)-pyridin-3-yl-acrylamide], the IC50 came out at 0.013 µM.

With `CCCCNc1nc(C(F)(F)F)ccc1/C=C/C(=O)N[C@H](C)c1cc(F)c(NS(C)(=O)=O)c(F)c1` [Example 238, (R)-3-(2-Butylamino-6-trifluoromethyl-pyridin-3-yl)-N-[(1R)-(3,5-difluoro-4-methanesulfonylamino-phenyl)-ethyl]-acrylamide], the half-maximal inhibitory concentration (IC50) worked out at 0.045 µM.

`C#Cc1cc(CNC(=O)COc2ccc(Cl)nc2)cc(F)c1NS(C)(=O)=O` [Example 35, 2-(6-Chloro-pyridin-3-yloxy)-N-(3-ethynyl-5-fluoro-4-methanesulfonylamino-benzyl)-acetamide]: the half-maximal inhibitory concentration (IC50) was over 10 µM.

Consider `CCCc1nc(C(F)(F)F)ccc1/C=C/C(=O)N[C@H](C)c1ccc(NS(C)(=O)=O)c(F)c1` [Example 209, (R)-3-(2-Propyl-6-trifluoromethyl-pyridin-3-yl)-N-[1-(3-fluoro-4-methanesulfonylamino-phenyl)-ethyl]-acrylamide], for which the IC50 amounted to 0.087 µM.

For the molecule `CCCCc1nc(C(F)(F)F)ccc1/C=C/C(=O)NCc1ccc(NS(C)(=O)=O)c(F)c1` [Example 143, 3-(2-Butyl-6-trifluoromethyl-pyridin-3-yl)-N-(3-fluoro-4-methanesulfonylamino-benzyl)-acrylamide], the half-maximal inhibitory concentration (IC50) was determined as 0.2 µM.

As to `C#Cc1cc(CNC(=O)/C=C/c2cccnc2N2CCOCC2)cc(F)c1NS(C)(=O)=O` [Example 49, N-(3-Ethynyl-5-fluoro-4-methanesulfonylamino-benzyl)-3-(2-morpholin-4-yl-pyridin-3-yl)-acrylamide], the half-inhibitory concentration (IC50) was 5.4 µM.

In the case of `CCOCc1nc(C(F)(F)F)ccc1/C=C/C(=O)NCc1ccc(NS(C)(=O)=O)c(F)c1` [Example 160, N-(3-Fluoro-4-methanesulfonylamino-benzyl)-3-(2-ethoxymethyl-6-trifluoromethyl-pyridin-3-yl)-acrylamide], the IC50 came out at 2.4 µM.

Regarding “2-(2-piperid-1-yl-6-chloro-pyridinyl-3-yloxy)-N-(3-fluoro-4-methanesulfonylamino-benzyl)-acetamide [Example 13]”, the IC50 was 3.5 µM.

Take `CS(=O)(=O)Nc1c(F)cc(CNC(=O)/C=C/c2ccc(C(F)(F)F)nc2N2CCCC2)cc1C#N` [Example 97, N-(3-Cyano-5-fluoro-4-methanesulfonylamino-benzyl)-3-(2-pyrrolidin-1-yl-6-trifluoromethyl-pyridin-3-yl)-acrylamide]: the IC50 stood at 0.29 µM.

Regarding `CC(C)Cc1nc(C(F)(F)F)ccc1/C=C/C(=O)N[C@H](C)c1cc(F)c(NS(C)(=O)=O)c(F)c1` [Example 245, (R)—N-[1-(3,5-Difluoro-4-methanesulfonylamino-phenyl)-ethyl]-3-(2-isobutyl-6-trifluoromethyl-pyridin-3-yl)-acrylamide], the half-inhibitory concentration (IC50) came out at 0.024 µM.

For the molecule `C=CS(=O)(=O)Nc1ccc(CNC(=O)/C=C/c2ccc(C(F)(F)F)nc2NC(C)C)cc1` [Example 267, N-(4-Ethenesulfonylamino-benzyl)-3-(2-isopropylamino-6-trifluoromethyl-pyridin-3-yl)-acrylamide], the half-maximal inhibitory concentration (IC50) worked out at 0.45 µM.

Consider `CCCCc1nc(C(F)(F)F)ccc1C#CC(=O)N[C@H](C)c1ccc(NS(C)(=O)=O)c(F)c1` [Example 274, 3-(2-Butyl-6-trifluoromethyl-pyridin-3-yl)-propynoic acid [1-(3-fluoro-4-methane sulfonylamino-phenyl)-ethyl]-amide], for which the half-maximal inhibitory concentration (IC50) came to 1.2 µM.

As for `CCCc1nc(C(F)(F)F)ccc1/C=C/C(=O)NCc1cc(F)c(NS(C)(=O)=O)c(F)c1` [Example 207, N-(3,5-Difluoro-4-methanesulfonylamino-benzyl)-3-(2-propyl-6-trifluoromethyl-pyridin-3-yl)-acrylamide], the IC50 was determined as 0.14 µM.

`CCCNc1nc(C(F)(F)F)ccc1/C=C/C(=O)N[C@H](C)c1ccc(NS(C)(=O)=O)c(F)c1` [Example 224, (R)—N-[1-(3-Fluoro-4-methanesulfonylamino-phenyl)-ethyl]-3-(2-propylamino-6-trifluoromethyl-pyridin-3-yl)-acrylamide]: the IC50 was found to be 0.016 µM.

On to `CS(=O)(=O)Nc1c(F)cc(CNC(=O)/C=C/c2ccc(C(F)(F)F)nc2-c2cccc(F)c2)cc1F` [Example 201, N-(4-Methanesulfonylamino-3,5-difluoro-benzyl)-3-[2-(3-fluoro-phenyl)-6-trifluoromethyl-pyridin-3-yl]-acrylamide], for which the IC50 came out at 0.42 µM.
